For one series, the system named is swine adipose tissue. The following applies: Mersmann, cited from earlier work; for lipolytic activity, in words: pigs.
Another series relates to heart rate. The following applies: pig, in vivo; cited from earlier work.
Another series has as its system bovine adipocytes. In words: Lipolytic activity on isolated bovine adipocytes (FFA production), in relation to Isoprenaline. The following applies: for EC50 / Emax: Bos taurus, Adipocyte; for EC50: 1.5 h, read-out: Lipolytic activity: pEC50 (converted); for Emax: read-out: Lipolytic activity: i.a. (intrinsic activity). The series is classed as cell-based. The protocol:
Pieces of adipose tissue of approximately 600×600 μm, isolated from bovine animals or sheep, are provided in a teflon container containing: 3 ml of Krebs-Henseleit buffer having a pH of 7.4, 1% w/v of demineralized bovine serum albumin (BSA), 0.33 mg/ml of collagenase and 200 nM of adenosine. […] After 1 hour the suspension is filtered through nylon gauze (100 μm) and washed 2 times with Krebs-Henseleit buffer at room temperature. The incubations are carried out in duplicate, each incubation mixture consisting of 50 μl of the filtered cell suspension, 100 μl of the compound to be tested, 2% w/v of BSA and 50 μg/ml of Na2 S2 O5 (antioxidant) in 2.85 ml of Krebs-Henseleit buffer. Incubation: 90 minutes at 37° C. while shaking and gassing with carbogen. After the incubation, extraction is carried out with 3 ml of 2-propanol/n-hexane/1N-H2 SO4 (40:20:1) mixture. In the organic layer the produced free fatty acids (FFA) are determined. This determination is carried out as follows: 150 μl of sample are diluted with 1 ml of chloroform and then mixed with copper reagent (10% Cu(NO3)2 /2M triethanolamine/2N acetic acid=10:9:1); 0.2% w/v of sodium diethyldithiocarbamate is added. The yellow color is measured in a colorimeter and is a measure of the FFA-production. […] The intrinsic activity is the maximally achievable activity, also measured again with respect to Isoprenaline®.

For another series, the system named is right atrium. In words: Heart activity: chronotropic effect on isolated right atria, in relation to Isoprenaline. The series is classed as cell-based, male Wistar rats. The note with it: for Emax: read-out: Chronotropic effect on the right atrium: i.a. (intrinsic activity); for EC50: read-out: Chronotropic effect on the right atrium: pEC50 (converted). The protocol: The heart activity has been determined in heart tissue of rats. It is known that rats are just as suitable for the determination of the heart activity (chronotropy) as the agricultural domestic animals mentioned hereinbefore.
The substances are tested with respect to their chronotropic effect on isolated right atria under a pre-load with 0.5 g, in an organ bath which contains the above Krebs buffer solution and is kept at 37° C. Dose-response curves with Isoprenaline® are determined. The results are again expressed as pEC50 values and, in relation to Isoprenaline®, as intrinsic activities ("i.a.").

The subject of another series is heart. The note with it: in the dosages required for the intended purpose; cited from earlier work.
For the next series, the system named is ovine adipocytes. In words: Lipolytic activity on isolated ovine adipocytes (FFA production), in relation to Isoprenaline. The series is classed as cell-based, sheep. The text has this:
It is known, for example, from a contribution by R. G. Vernon in "New perspectives in Adipose Tissue; structure, function and development", page 76, edited by Cryer and Van, Butterworths 1984, London, that there exists a good relationship between the lipolytic activity on the one hand and the activity as a repartitioning agent on the other hand. This means that a high value for the lipolytic activity is predictable for the increase of the muscle/fat ratio and for improving the growth and the feed efficiency of agricultural domestic animals. The influence of the tested compounds on the lipolysis of adipocytes is described in example I hereinafter. Bovine and ovine adipocytes, i.e. adipocytes of representative examples of agricultural domestic animals, have been used in this example.
Pieces of adipose tissue of approximately 600×600 μm, isolated from bovine animals or sheep, are provided in a teflon container containing: 3 ml of Krebs-Henseleit buffer having a pH of 7.4, 1% w/v of demineralized bovine serum albumin (BSA), 0.33 mg/ml of collagenase and 200 nM of adenosine. The adipocytes are isolated by shaking the container at 37° C. under carbogen gassing (approximately 5% CO2 in 95% O2). After 1 hour the suspension is filtered through nylon gauze (100 μm) and washed 2 times with Krebs-Henseleit buffer at room temperature. The incubations are carried out in duplicate, each incubation mixture consisting of 50 μl of the filtered cell suspension, 100 μl of the compound to be tested, 2% w/v of BSA and 50 μg/ml of Na2 S2 O5 (antioxidant) in 2.85 ml of Krebs-Henseleit buffer. Incubation: 90 minutes at 37° C. while shaking and gassing with carbogen. […] In the organic layer the produced free fatty acids (FFA) are determined. […] The yellow color is measured in a colorimeter and is a measure of the FFA-production. […] In addition to the fond pEC50 values, the values for the intrinsic activity ("i.a.") have been recorded in Table A hereinafter. The intrinsic activity is the maximally achievable activity, also measured again with respect to Isoprenaline®.

[1] abbreviates: compared with tested known substances / in the concentration required for the intended use.

“Also recorded” adds a separate entry of the source. Where two headings read alike, the source gives them in different places.

In the case of `CC(C)(C)NCC(O)c1cc(O)cc(O)c1` (stereo not shown) [terbutaline], in the series on swine adipose tissue, the “lipolytic activity, in words” value is reported as “less active in lipolysis”. Besides, in the series with heart rate, the “increasing heart rate, in words” value is on record as “more active in increasing heart rate”.

With `CC(C)(C)NCC(O)c1cc(Cl)c(N)c(Cl)c1` (stereo not shown) [Clenbuterol], in the series with bovine adipocytes, the EC50 is 1580 nM and the Emax is 30%. Also, in the series with right atrium (Rattus norvegicus), the Emax was determined as 40% and the EC50 is 50.1 nM. Moreover, the “side effects on the heart, in words” value with heart was “serious side effects because in the dosages required for the intended purpose an undesired influence on the heart is exerted”.

As to `CC(C)(Cc1ccc(O)cc1)NCC(O)c1cc(O)cc(O)c1` (stereo not shown) [(1), 1-(3,5-dihydroxyphenyl)-2-[1,1-dimethyl-2-(4-hydroxyphenyl)ethylamino]ethanol], the EC50 with bovine adipocytes was 3160 nM; in the series on ovine adipocytes (Ovis aries, Adipocyte, 1.5 h, 90 minutes at 37° C., pEC50 = negative logarithm of concentration at 50% of maximum effect) it was 501 nM; in the series on right atrium (Rattus norvegicus), 2510 nM. Further, the Emax with bovine adipocytes was 80%; with ovine adipocytes (Ovis aries, Adipocyte, maximally achievable activity with respect to Isoprenaline, read-out: Lipolytic activity: i.a. (intrinsic activity)), 140%; in the series with right atrium (Rattus norvegicus) it was 40%. In addition, in the series on bovine adipocytes (bovine adipocytes), the “lipolytic activity on bovine adipocytes, in words” value is recorded as “remarkably high lipolytic activity”. In addition, the “intrinsic lipolytic activity, comparison in words” value with bovine adipocytes (versus Ractopamine and Clenbuterol) was “significantly higher than that of the phenylalkylamino derivatives Ractopamine® and Clenbuterol®”. The “lipolytic activity on ovine adipocytes, in words” value with ovine adipocytes was “remarkably high lipolytic activity”. The “heart activity, in words” value was “considerably lower than that of the substances Ractopamine®, Fenoterol® and Clenbuterol®; also recorded: without a burdensome heart activity being experienced” in the series with right atrium (setting [1]); “low heart effect” with right atrium (compared with tested known substances / in the concentration required for the intended use, listed as 1-(3,5-dihydroxyphenyl)-2-[1,1-dimethyl-2-(4-hydroxyphenyl)-ethylamino]ethanol). In addition, the “lipolytic activity, in words” value in the series on swine adipose tissue is “low lipolytic activity”. In addition, in the series on swine adipose tissue (swine adipose tissue, relative to Fenoterol), the “relative ED50 (lipolysis)” value is “approximately ten times as high as that of Fenoterol®”.

With `CC(CCc1ccc(O)cc1)NCC(O)c1ccc(O)cc1` (stereo not shown) [Ractopamine], the EC50 in the series on bovine adipocytes (bovine adipocytes, 90 minutes at 37° C., pEC50 = negative logarithm of concentration at 50% of maximum effect) is 2510 nM; in the series with right atrium (isolated rat right atria, pre-load 0.5 g, Krebs buffer, 37° C.) it was 31.6 nM. Besides, the Emax in the series on bovine adipocytes (bovine adipocytes, maximally achievable activity with respect to Isoprenaline) was found to be 60%; in the series on right atrium (isolated rat right atria, in relation to Isoprenaline) it was 100%. The “heart activity, in words” value in the series on right atrium was “considerable heart activity in the required concentration”. Moreover, in the series with heart, the “side effects on the heart, in words” value is “serious side effects because in the dosages required for the intended purpose an undesired influence on the heart is exerted”.

For the molecule `CC(Cc1ccc(O)cc1)NCC(O)c1cc(O)cc(O)c1` (stereo not shown) [Fenoterol], in the series with bovine adipocytes, the EC50 was 794 nM and the Emax was determined as 80%. For the same molecule, in the series with right atrium (Rattus norvegicus), the Emax is 100% and the EC50 was 251 nM. Besides, in the series on right atrium (setting [1]), the “heart activity, in words” value was “considerable heart activity in the concentration required for the intended purpose”.

These data come from patent publication US5266589A, “Method of increasing the muscle/fat ratio in agricultural domestic animals” (Duphar International Research B.V., priority 1990, dated 1993).
